Assays:
[1] = system: U87-WT cells; assay: cellular uptake in U87-WT cells; type: cell-based, human; conditions: incubation 1 h
Procedure: (§1) Consistent with this assumption, uptake of [^18F]4 and, to a lesser extent, the ^18F-fluoroethoxylated analog [^18F]5 by both cell lines was considerably higher than that of (S)-[^18F]2.
(§2) Human glioblastoma cells with a c.395G>A knock-in mutation encoding mIDH1R132H (HTB-14IG™) and the corresponding wildtype cells (HTB-14™) were purchased from the American Type Culture Collection (ATCC). The cells were grown under standard culture conditions (5% CO2 and 95% air at 37 °C) in Eagle’s Minimum Essential Medium (MEM) supplemented with 10% fetal bovine serum (FBS) and antibiotics (penicillin–streptomycin mixed solution, Gibco, Thermo Fisher Scientific, Oberhausen, Germany).
(§3) For the cellular uptake studies, 1.5 × 10^5 cells were seeded into gelatin-coated 12-well transwell plates and incubated in 1 mL MEM (without FBS and antibiotics) containing 18.5 kBq (0.5 µCi) of the corresponding radiotracer. After incubation at 21 °C for 1 h, the supernatant was collected, the cells were lysed with 40 mM NaOH and the radioactivity of both fractions was measured with a gamma counter. The total protein concentration of the cell lysate was measured by a bicinchoninic acid (BCA) assay. The radiotracer uptake was calculated as the ratio of radioactivity in the cell fraction and the supernatant and normalized by protein content (% uptake/100 µg protein). Statistical analysis of the results was performed with Originlab Pro 2023b using two-tailed t-tests with a significance level of 0.05 to identify significant differences between groups.

[2] = PET biodistribution in healthy mice; type: in vivo, C57BL/6 mice
Procedure: The in vivo stability, whole-body biodistribution and excretory pathways of [^18F]4 were investigated by small animal PET imaging in healthy C57BL/6 mice (Figure 5). […] In contrast, renal excretion was negligible, with very low radioactivity accumulation in the urinary bladder. Background uptake into muscles and other tissues was also low, with maximum SUVbw values of 52 ± 6 after 16 min followed by a decline to 18 ± 2 after 120 min. […] Nevertheless, while limited BBB penetrance might be an issue in patients with an intact BBB, brain tumors like gliomas are often associated with partial BBB disruption, which could facilitate tumor delivery of the probe. […] With this in mind and based on the reasonable in vivo stability and low background uptake, the tumor accumulation and mIDH-selectivity of [^18F]4 were further investigated in a subcutaneous tumor model.
All experiments were carried out in accordance with the EU directive 2010/63/EU for animal experiments and the German Animal Welfare Act (TierSchG, 2006) and were approved by the regional authorities (LANUV NRW; 81-02.04.2022.A442). Six male CB17-SCID mice and four male C57BL/6 mice (Janvier Labs, Le Genest-Saint-Isle, France) were housed in groups in individually ventilated cages (Allentown LLC, Allentown, NJ, USA) in a temperature- and humidity-controlled room (20 ± 2 °C, 50–60% humidity) on a 12:12 h light–dark cycle. Throughout the experiments, the animals had ad libitum access to water and food.
The mice were anesthetized with isoflurane (5% for induction, 2% for maintenance) in O2/air (3:7), and a catheter for tracer injection was inserted into the lateral tail vein. They were placed on an animal holder (Medres, Cologne, Germany) and fixed with a tooth bar in a respiratory mask. Body temperature was maintained at 37 °C by warming the animal bed. Eyes were protected from drying with Bepanthen eye and nose ointment (Bayer, Leverkusen, Germany). Respiratory rate was monitored and maintained at around 40–60 breaths per minute by adjusting the isoflurane concentration. A PET scan in list mode was conducted using a Focus 220 micro PET scanner (CTI-Siemens, Erlangen, Germany) with a resolution at the center of the field of view of 1.4 mm. Data acquisition started with intravenous tracer injection and ended after 120 min. This was followed by a 10 min transmission scan using a ^57Co point source for attenuation correction. After the scan was completed, the catheter was removed and the animals were allowed to wake up in their home cage. Data were histogrammed in three ways: (1) 4 × 30 min frames for visual display, (2) 28 frames (2 × 1 min, 2 × 2 min, 6 × 4 min, 18 × 5 min) for determination of time–activity curves, (3) 53 frames (12 × 10 s, 6 × 30 s, 15 × 1 min, 20 × 5 min) for kinetic modelling. Full 3D rebinning was followed by an iterative OSEM3D/MAP reconstruction algorithm with attenuation and decay correction. The resulting voxel sizes were 0.47 mm × 0.47 mm × 0.80 mm. All further analysis was performed with the software VINCI 5.21 (Max Planck Institute for Metabolism Research, Cologne, Germany). Standardized uptake values based on body weight (SUVbw) were determined according to the following equation: SUVbw = radioactivity [Bq/g] × body weight [g] × 100/injected dose [Bq]. Statistical analysis of the results was performed with a 2-way analysis of variance (ANOVA) followed by Sidak’s multiple comparison test to identify significant differences between the two tumor types.

[3] = system: U87-mIDH cells; assay: cellular uptake in U87-mIDH cells; type: cell-based, human
Procedure: as §1, §2, §3

[4] = lipophilicity by shake-flask method (n-octanol/water or PBS); type: physicochemical; conditions: triplicate
Procedure: As a measure for the lipophilicity of the four radiolabeled probes, their partition coefficients (logP) and distribution coefficients at pH 7.4 (logD7.4) were determined by the shake-flask method. Table 1 summarizes the results of these experiments and compares them with the predicted logD7.4 values calculated using the ADMETlab platform.
A solution of the corresponding radiotracer in DMSO (1 µL) was added to a mixture of n-octanol and PBS (pH = 7.4) or water (750 µL of each) in a 2 mL Eppendorf vial and the vial was vortexed for 2 min and centrifuged for another 2 min to separate the two phases. A total of 300 µL of the upper n-octanol phase was then carefully removed from the top, while 300 µL of the aqueous phase was removed by piercing the bottom of the vial with a syringe and cannula to avoid contact with the organic phase. Both fractions were transferred into fresh vials and counted in a gamma counter to determine the ratio between the activity in the organic and the aqueous phase. All measurements were performed in triplicate and the results are expressed as mean ± standard deviation of the logarithm of the partition coefficient between n-octanol and water (logP) or the logarithm of the distribution coefficient between n-octanol and PBS (logD7.4), respectively.

With COc1cc(NCc2cc3cc([18F])ccc3[nH]c2=O)ccc1C#N [[^18F]4] as the molecule, how does the cellular uptake [1] read?
Its cellular uptake is 4.7 ± 1.4 % per 100 µg protein.

And the “max. SUVbw liver” value ([2]; after 3 min, i.v., n = 4)?
Its value is 304 ± 54.

And the “maximum SUVbw muscles and other tissues (background)” value ([2]; after 16 min)?
The value was 52 ± 6.

And the SUVbw bone ([2]; after 120 min)?
Its SUVbw bone is 67 ± 8.

And the “SUVbw muscles and other tissues (background)” value ([2]; after 120 min)?
The value was 18 ± 2.

And the “max. SUVbw intestine” value ([2]; after 120 min, i.v., n = 4)?
Its value is 5344 ± 1693.

What about the excretory pathway ([2]; mouse, in vivo) of the same molecule?
Its excretory pathway is “almost exclusive hepatobiliary excretion”.

And the renal excretion ([2]; mouse, in vivo)?
Its renal excretion is “negligible”.

What about the “brain uptake of radioactivity” value ([2]; throughout all measurements) of the same molecule?
The value was “very low”.

And the “fold higher cellular uptake than (S)-[^18F]2” value ([3]; U87-mIDH and U87-WT cells)?
Its value is 5−8 fold.

What about the cellular uptake ([3]; U87-mIDH cells, incubation 1 h) of the same molecule?
The cellular uptake was 6.0 ± 2.0 % per 100 µg protein.

What about the logD ([4]; n-octanol/PBS pH 7.4, shake-flask, read-out: logD7.4 Exp. Determined) of the same molecule?
The logD was 2.67 ± 0.04.

What about the logP ([4]; n-octanol/water, shake-flask, read-out: logP) of the same molecule?
Its logP is 2.5 ± 0.03.

Reference: paper PMC11356819 (Molecules, 2024)
